Consider 4 compounds from EP0114002B1, “Benzothiopyrano(4,3,2,-cd)indazoles, their pharmaceutical compositions and methods for their production” (WARNER-LAMBERT COMPANY, priority 1983, dated 1984).

Assay [1] deals with Streptococcus faecalis 05045. Briefly: in vitro antibacterial/antifungal (ABF) agar-disk diffusion test. The conditions noted are these: Enterococcus faecalis, AM-09 medium, read-out: ABF Zone Diameter (cont. in mg/ml) S. Fae-calis; for zone of inhibition at 1000 µg/mL: 1 mg/ml. In kind it is cell-based. How it is done:
(§1) Still another test protocol is the in vitro antibacterial/antifungal (ABF) test. Compounds are tested for antimicrobial activity in an agar-disk diffusion assay, a standard microbiological technique for testing antibiotics'. After incubation of each culture with a test compound, a zone of inhibition is determined. The zone diameter (mm) of active compounds ranges from a minimum of 13.5 mm to as high as 60 mm, with a greater diameter reflecting higher activity. For convenience, values are reported for two gram-negative bacteria (Aerobacter aerogenes 0126 and Escherichia coli 04863), two gram-positive bacteria (Bacillus subtilis 04555 and Streptococcus faecalis 05045 utilizing AM-09 medium), and one mycelial fungus (Penicillium avellaneum M2988).
On the technique in general: Agar diffusion results depend on both activity and mobility in agar.

A further assay concerns Bacillus subtilis 04555. The assay is described as above. In kind it is cell-based. The following applies: read-out: ABF Zone Diameter (cont. in mg/ml) B. Sub-tilis; for zone of inhibition at 500 µg/mL: 0.5 mg/ml. How it is done: as §1
The test system of assay [2] is Penicillium avellaneum M2988. The assay is described as above. It counts as cell-based. The conditions noted are these: Hamigera avellanea, 3 mg/ml, read-out: ABF Zone Diameter (cont. in mg/ml) P. Avell-aneum. The protocol: as §1
Assay [3] has as its system Aerobacter aerogenes 0126. Described as above. It counts as cell-based. The conditions noted are these: Klebsiella aerogenes, read-out: ABF Zone Diameter (cont. in mg/ml) A. Aero-genes; for zone of inhibition at 100 µg/mL: 0.1 mg/ml; for zone of inhibition at 500 µg/mL: 0.5 mg/ml. The protocol: as §1
A further assay concerns Escherichia coli 04863. Described as above. In kind it is cell-based. The conditions noted are these: read-out: ABF Zone Diameter (cont. in mg/ml) E. Coli; for zone of inhibition at 500 µg/mL: 0.5 mg/ml. How it is done: as §1
The subject of another assay is HCT-8 cells. Briefly: in vitro proliferating human colon adenocarcinoma (HCA) cell screen. In kind it is cell-based. The following applies: Table 1, 60 to 65 hours with compound, 50% inhibition of growth, read-out: HCA—3 in vitro ID50. The procedure, abridged:
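HCT-8 cells grown 48 h at 37 °C in RPMI 1640/10% FCS, then exposed to compound for a further 60–65 h. Nuclei counted by Coulter counter after lysis; percent growth per concentration gives ID50 as molar concentration causing 50% growth inhibition.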

Another assay deals with L1210 cells. Briefly: L1210 murine leukemia cell growth inhibition in vitro. The conditions noted are these: Mus musculus, 72 h, Table 1, three days incubation, 50% inhibition of growth, read-out: L1210 in vitro ID50. It counts as cell-based. The procedure, abridged:
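Murine L1210 leukemia cells (3 x 10^4 cells/ml) in RPMI 1640 with 5% FBS were exposed to drug dilutions for 3 days at 37 °C and 5% CO2. Cells were then Coulter-counted, growth was expressed relative to solvent and medium controls, and ID50 was given in mol/L.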

Assay [4] concerns lymphocytic leukemia P388. Briefly: in vivo lymphocytic leukemia P388 test. Further details: species or system mice. The conditions noted are these: Mus musculus, P388, ip, 120 h, read-out: P388 in vivo T/C × 100; for response vs control in vivo at 3.12 mg/kg: Dose 3.12 mg/kg intraperitoneally once daily for five days; for response vs control in vivo at 6.25 mg/kg: Dose 6.25 mg/kg intraperitoneally once daily for five days; for response vs control in vivo at 12.5 mg/kg: Dose 12.50 mg/kg intraperitoneally once daily for five days; for response vs control in vivo at 25 mg/kg: Dose 25.00 mg/kg intraperitoneally once daily for five days. An outline of the steps: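 CD2F mice, 6-7 per group, inoculated IP with P388 leukemia ascitic cells, then dosed IP once daily for five consecutive days at various doses. Survival and weights tracked for 30 days; activity expressed as treated/control survival time ×100, with ≥125 as efficacy criterion. Deaths of all animals within four days flagged as toxic.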

On to `NCCn1nc2c3c(c(N)ccc31)Sc1ccccc1-2` [CH2CH2NH2 / NH2, 5-amino-2H[1]benzothiopyrano[4,3,2]-cd]indazole-2-ethanamine], for which the zone of inhibition at 1000 µg/mL in assay [1] amounted to 15 mm. For the same compound, the zone of inhibition at 1000 µg/mL in the assay with Bacillus subtilis 04555 (1 mg/ml) came out at 18 mm. Also, in assay [2], the zone of inhibition at 3000 µg/mL was 0 mm. For the same compound, in assay [3], the zone of inhibition at 100 µg/mL is 17 mm. Moreover, the zone of inhibition at 500 µg/mL in the assay on Escherichia coli 04863 is 19 mm. Besides, the IC50 with HCT-8 cells was found to be 320 nM. Moreover, the IC50 in the assay with L1210 cells came out at 110 nM. In assay [4], the response vs control in vivo at 3.12 mg/kg is 125%, the response vs control in vivo at 6.25 mg/kg worked out at 131% and the response vs control in vivo at 12.5 mg/kg was found to be 160%.
Regarding `Nc1ccc2c3c(nn2CCNCCO)-c2ccccc2Sc13` [CH2CH2NHCH2CH2OH / NH2], in assay [1], the zone of inhibition at 1000 µg/mL stood at 20 mm. The zone of inhibition at 500 µg/mL in the assay with Bacillus subtilis 04555 was found to be 18 mm; in assay [3] it was 16 mm; in the assay with Escherichia coli 04863, 17 mm. In addition, the zone of inhibition at 3000 µg/mL in assay [2] was determined as 15 mm. In addition, the IC50 with HCT-8 cells stood at 580 nM; in the assay with L1210 cells, 170 nM. Besides, the response vs control in vivo at 3.12 mg/kg in assay [4] was 135%. In assay [4], the response vs control in vivo at 6.25 mg/kg was found to be 143%. Besides, the response vs control in vivo at 12.5 mg/kg in assay [4] is 159%. The response vs control in vivo at 25 mg/kg in assay [4] came out at 194%.
With `OCCNCCNc1ccc2c3c(nn2CCNCCO)-c2ccccc2Sc13` [CH2CH2NHCH2CH2OH / NHCH2CH2NHCH2CH2OH, 2-[[2-[5-[[2-[(2-Hydroxyethyl)amino]ethyl]amino]-2H[1]benzothiopyrano[4,3,2-cd]indazol-2-yl]ethyl]amino]ethanol], the zone of inhibition at 3000 µg/mL in assay [1] (3 mg/ml) and in assay [2] was 0 mm each time. Besides, the zone of inhibition at 500 µg/mL in the assay with Bacillus subtilis 04555 was found to be 15 mm; in assay [3] it was 14 mm; with Escherichia coli 04863, 14 mm. Moreover, the IC50 in the assay with HCT-8 cells was 480 nM; in the assay on L1210 cells, 400 nM. The response vs control in vivo at 0.75 mg/kg in assay [4] (Dose 0.75 mg/kg intraperitoneally once daily for five days) was 146%. In assay [4] (Dose 0.78 mg/kg intraperitoneally once daily for five days), the response vs control in vivo at 0.78 mg/kg amounted to 153%. The response vs control in vivo at 1.5 mg/kg in assay [4] (Dose 1.50 mg/kg intraperitoneally once daily for five days) stood at 155%. Also, in assay [4] (Dose 1.56 mg/kg intraperitoneally once daily for five days), the response vs control in vivo at 1.56 mg/kg turned out to be 180%. For the same compound, the response vs control in vivo at 3 mg/kg in assay [4] (Dose 3.00 mg/kg intraperitoneally once daily for five days) was found to be 187%. The response vs control in vivo at 3.12 mg/kg in assay [4] came to 176%. Besides, in assay [4] (Dose 6.00 mg/kg intraperitoneally once daily for five days), the response vs control in vivo at 6 mg/kg was 218%. Besides, the response vs control in vivo at 6.25 mg/kg in assay [4] is 195%. Further, the response vs control in vivo at 12 mg/kg in assay [4] (Dose 12.00 mg/kg intraperitoneally once daily for five days) was 270%. In addition, the response vs control in vivo at 12.5 mg/kg in assay [4] amounted to 271%.
For the compound `O=[N+]([O-])c1ccc2c3c(nn2CCNCCO)-c2ccccc2Sc13` [CH2CH2NHCH2CH2OH / NO2, 2-[[2-(5-Nitro-2H[1]benzothiopyrano[4,3,2-cd]indazol-2-yl)ethyl]amino]ethano], the zone of inhibition at 500 µg/mL in assay [1] (0.5 mg/ml) worked out at 15 mm; in the assay on Bacillus subtilis 04555, 18 mm. Moreover, the zone of inhibition at 3000 µg/mL in assay [2] was 0 mm. In addition, the zone of inhibition at 100 µg/mL (in assay [3]; in the assay with Escherichia coli 04863 (0.1 mg/ml)) was 16 mm in each case. The results for the IC50 in the assay on HCT-8 cells and in the assay on L1210 cells were 100 nM and 20 nM, respectively. Also, in assay [4], the response vs control in vivo at 6.25 mg/kg was 148%. Moreover, the response vs control in vivo at 12.5 mg/kg in assay [4] was found to be 150%. Moreover, in assay [4], the response vs control in vivo at 25 mg/kg was determined as 197%.
